Each compound was assayed against T1, rhCRTh2 (Homo sapiens, UniProt Q9Y5Y4) (assay: Ligand Binding Assay ([3H]PGD2 SPA binding)). Details: [3H]PGD2 binding, membranes of HEK cells expressing rhCRTh2/Gα16, SPA beads, 2 hours room temperature; read-out: pIC50 value (converted).
T1 construct: expressed in transfected cells; host or cells: HEK cells (membrane preparation)
T1 sequence (Q9Y5Y4 1-395): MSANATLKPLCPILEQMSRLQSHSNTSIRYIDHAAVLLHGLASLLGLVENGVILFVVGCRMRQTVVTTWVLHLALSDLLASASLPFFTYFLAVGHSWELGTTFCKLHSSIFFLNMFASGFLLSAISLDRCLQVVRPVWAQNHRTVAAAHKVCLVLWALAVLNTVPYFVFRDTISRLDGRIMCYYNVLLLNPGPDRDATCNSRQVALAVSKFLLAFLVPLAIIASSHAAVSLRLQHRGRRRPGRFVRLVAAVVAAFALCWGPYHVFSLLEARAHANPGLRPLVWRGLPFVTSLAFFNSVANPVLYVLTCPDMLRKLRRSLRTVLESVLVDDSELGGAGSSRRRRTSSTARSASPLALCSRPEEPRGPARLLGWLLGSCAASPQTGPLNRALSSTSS
Experimental: [^3H]PGD2 was purchased from Perkin Elmer Life Sciences with a specific activity of 100-210 Ci/mmol. All other chemicals were of analytical grade.
HEK cells expressing rhCRTh2/Gα16 were routinely maintained in DMEM containing 10% Foetal Bovine Serum (HyClone), 1 mg/ml geneticin, 2 mM L-glutamine and 1% non-essential amino acids. For the preparation of membranes, the adherent transfected HEKcells were grown to confluence in two layer tissue culture factories (Fisher, catalogue number TKT-170-070E). Maximal levels of receptor expression were induced by addition of […] sodium butyrate for the last 18 hours of culture. The adherent cells were washed once with phosphate buffered saline (PBS, 50 ml per cell factory) and detached by the addition of 50 ml 0.1 mM dithiothreitol, 1 mM EDTA, 0.1 mM phenyl methyl sulphonyl fluoride and 100 μg/ml bacitracin]. Cells were pelleted by centrifugation at 220×g for 10 minutes at 4° C., re-suspended in half the original volume of fresh membrane homogenisation buffer and disrupted using a Polytron homogeniser for 2×20 second bursts keeping the tube in ice at all times. Unbroken cells were removed by centrifugation at 220×g for 10 minutes at 4° C. and the membrane fraction pelleted by centrifugation at 90000×g for 30 minutes at 4° C. The final pellet was re-suspended in 4 ml of membrane homogenisation buffer per cell factory used and the protein content determined. Membranes were stored at −80° C. in suitable aliquots.
All assays were performed in Corning clear bottomed, white 96-well NBS plates (Fisher). Prior to assay, the HEK cells membranes containing CRTh2 were coated onto SPA PVT WGA beads (Amersham). For coating membranes were incubated with beads at typically 25 μg membrane protein per mg beads at 4° C. with constant agitation overnight. (The optimum coating concentrations were determined for each batch of membranes) The beads were pelleted by centrifugation (800×g for 7 minutes at 4° C.), washed once with assay buffer (50 mM HEPES pH 7.4 containing 5 mM magnesium chloride) and finally re-suspended in assay buffer at a bead concentration of 10 mg/ml.
Each assay contained 20 μl of 6.25 nM [^3H]PGD2, 20 μl membrane saturated SPA beads both in assay buffer and 10 μl of compound solution or 13,14-dihydro-15-keto prostaglandin D2 (DK-PGD2, for determination of non-specific binding, Cayman chemical company).
Compounds and DK-PGD2 were dissolved in DMSO and diluted in the same solvent to 100× the required final concentration. […] The assay plate was incubated at room temperature for 2 hours and counted on a Wallac Microbeta liquid scintillation counter (1 minute per well).
Compound `O=C(O)COc1ccc(C(F)(F)F)cc1CN1CCN(C(=O)Cc2cccs2)CC1` [Example 42, [2-[[4-(2-thienylacetyl)-1-piperazinyl]methyl]-4-(trifluoromethyl)phenoxy]-acetic Acid] has an IC50 of 132 nM. With `O=C(O)COc1ccc(C(F)(F)F)cc1CN1CCCN(S(=O)(=O)c2ccc(F)cc2)CC1` [example 7, [2-[[4-[(4-fluorophenyl)sulfonyl]hexahydro-1H-1,4-diazepin-1-yl]methyl]-4-(trifluoromethyl)phenoxy]-acetic acid] the IC50 was 89.1 nM. With `CC1CN(Cc2cc(Cl)ccc2OCC(=O)O)CCN1S(=O)(=O)c1ccccc1` (stereo not shown) [example 57, [4-Chloro-2-[[3-methyl-4-(phenylsulfonyl)-1-piperazinyl]methyl]phenoxy]acetic Acid] the IC50 was 5.01 nM. `C[C@H]1CN(Cc2cc(Cl)ccc2OCC(=O)O)CCN1C(=O)Cc1cccc(F)c1` [example 91, [4-chloro-2-[[(3S)-4-[(3-fluorophenyl)acetyl]-3-methyl-1-piperazinyl]methyl]phenoxy]-acetic Acid] was tested, and the IC50 was 15.8 nM.

— US8524715B2, “Phenoxyacetic acid derivatives useful for treating respiratory diseases” (Astrazeneca AB, priority 2004, dated 2013)
